pIC50: −log10 of the molar value.

Consider one compound from ChEMBL document CHEMBL1201861, “Genomics of Drug Sensitity in Cancer screening data, Wellcome Trust Sanger Institute”.

In one assay the test system is SF-268. In words: cells. As to conditions: Homo sapiens, SF-268. The assay is classed as functional, cell-based, Homo sapiens.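 Note: growth inhibition of SF-268 cells determined with a cell viability assay.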
Description: SANGER: Inhibition of human SF268 cell growth in a cell viability assay.
One may read the pIC50 as −log10 of the IC50, conventionally taken in molar units. For the compound `Cc1cc(N2CCOCC2)cc2[nH]c(-c3c(NC[C@@H](O)c4cccc(Cl)c4)cc[nH]c3=O)nc12`, the pIC50 was 5.52.

Another assay deals with D283 Med. Nature of the assay: cells. The format is functional, cell-based, Homo sapiens. The following applies: Homo sapiens, D283 Med.
Description: SANGER: Inhibition of human D-283MED cell growth in a cell viability assay.
Compound `Cc1cc(N2CCOCC2)cc2[nH]c(-c3c(NC[C@@H](O)c4cccc(Cl)c4)cc[nH]c3=O)nc12` gave a pIC50 of under 5.29.

In another assay the test system is SK-NEP-1. Nature of the assay: cells. The assay is classed as functional, cell-based, Homo sapiens. The following applies: Homo sapiens, SK-NEP-1.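 Note: growth inhibition of human SK-NEP-1 cells, read out by a cell viability assay.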
Description: SANGER: Inhibition of human SK-NEP-1 cell growth in a cell viability assay.
`Cc1cc(N2CCOCC2)cc2[nH]c(-c3c(NC[C@@H](O)c4cccc(Cl)c4)cc[nH]c3=O)nc12` gave a pIC50 of under 5.29.

The next assay deals with NCI-H1838. In words: cells. The format is functional, cell-based, Homo sapiens. As to conditions: Homo sapiens, NCI-H1838.
Description: SANGER: Inhibition of human NCI-H1838 cell growth in a cell viability assay.
For the compound `Cc1cc(N2CCOCC2)cc2[nH]c(-c3c(NC[C@@H](O)c4cccc(Cl)c4)cc[nH]c3=O)nc12`, the pIC50 is under 5.29.

The test system of the next assay is COLO-320-HSR. In words: cells. The following applies: Homo sapiens, COLO-320-HSR. The format is functional, cell-based, Homo sapiens.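 Note: growth inhibition of COLO-320-HSR cells, determined with a cell viability assay.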
Description: SANGER: Inhibition of human COLO-320-HSR cell growth in a cell viability assay.
The compound `Cc1cc(N2CCOCC2)cc2[nH]c(-c3c(NC[C@@H](O)c4cccc(Cl)c4)cc[nH]c3=O)nc12` had a pIC50 of 6.03.

The subject of another assay is KNS-42. In words: cells. The format is functional, cell-based. The following applies: Homo sapiens.
Description: SANGER: Inhibition of human KNS-42 cell growth in a cell viability assay.
As for `Cc1cc(N2CCOCC2)cc2[nH]c(-c3c(NC[C@@H](O)c4cccc(Cl)c4)cc[nH]c3=O)nc12`, the pIC50 was under 5.29.

A further assay has as its system EW-18. Nature of the assay: cells. The assay is classed as functional, cell-based, Homo sapiens. The following applies: Homo sapiens, EW-18; read-out: IC50.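 Note: growth inhibition of EW-18 cells, read out by a cell viability assay.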
Description: SANGER: Inhibition of human EW-18 cell growth in a cell viability assay.
Consider `Cc1cc(N2CCOCC2)cc2[nH]c(-c3c(NC[C@@H](O)c4cccc(Cl)c4)cc[nH]c3=O)nc12`, for which the pIC50 is under 5.29.

Another assay deals with SCH. In words: cells. As to conditions: Homo sapiens, SCH. The format is functional, cell-based, Homo sapiens.
Description: SANGER: Inhibition of human SCH cell growth in a cell viability assay.
In turn, `Cc1cc(N2CCOCC2)cc2[nH]c(-c3c(NC[C@@H](O)c4cccc(Cl)c4)cc[nH]c3=O)nc12` had a pIC50 of under 5.29.

Another assay concerns KINGS-1. Nature of the assay: cells. The following applies: Homo sapiens, KINGS-1. The assay is classed as functional, cell-based, Homo sapiens.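 Note: cell viability assay measuring suppression of KINGS-1 cell growth.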
Description: SANGER: Inhibition of human KINGS-1 cell growth in a cell viability assay.
`Cc1cc(N2CCOCC2)cc2[nH]c(-c3c(NC[C@@H](O)c4cccc(Cl)c4)cc[nH]c3=O)nc12` had a pIC50 of under 5.29.

The subject of another assay is GCIY. In words: cells. The assay is classed as functional, cell-based, Homo sapiens. As to conditions: Homo sapiens, GCIY.
Description: SANGER: Inhibition of human GCIY cell growth in a cell viability assay.
Take `Cc1cc(N2CCOCC2)cc2[nH]c(-c3c(NC[C@@H](O)c4cccc(Cl)c4)cc[nH]c3=O)nc12`: the pIC50 is 6.39.

The test system of a further assay is LU-139. Nature of the assay: cells. The assay is classed as functional, cell-based, Homo sapiens. As to conditions: Homo sapiens, LU-139.
Description: SANGER: Inhibition of human LU-139 cell growth in a cell viability assay.
`Cc1cc(N2CCOCC2)cc2[nH]c(-c3c(NC[C@@H](O)c4cccc(Cl)c4)cc[nH]c3=O)nc12` had a pIC50 of under 5.29.

The next assay relates to NEC8. In words: cells. The assay is classed as functional, cell-based, Homo sapiens. The following applies: Homo sapiens, NEC8.
Description: SANGER: Inhibition of human NEC8 cell growth in a cell viability assay.
In turn, `Cc1cc(N2CCOCC2)cc2[nH]c(-c3c(NC[C@@H](O)c4cccc(Cl)c4)cc[nH]c3=O)nc12` showed a pIC50 of under 5.29.

The next assay has as its system EKVX. In words: cells. The following applies: Homo sapiens, EKVX. The format is functional, cell-based, Homo sapiens.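 Note: growth inhibition of human EKVX cells, read out with a cell viability assay.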
Description: SANGER: Inhibition of human EKVX cell growth in a cell viability assay.
In turn, `Cc1cc(N2CCOCC2)cc2[nH]c(-c3c(NC[C@@H](O)c4cccc(Cl)c4)cc[nH]c3=O)nc12` gave a pIC50 of 5.60.

In a further assay the test system is SW872. Nature of the assay: cells. The following applies: Homo sapiens, SW872. The format is functional, cell-based, Homo sapiens.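 Note: growth inhibition of SW872 cells, read out by a viability assay.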
Description: SANGER: Inhibition of human SW872 cell growth in a cell viability assay.
Consider `Cc1cc(N2CCOCC2)cc2[nH]c(-c3c(NC[C@@H](O)c4cccc(Cl)c4)cc[nH]c3=O)nc12`, for which the pIC50 was 5.70.

The subject of the next assay is TE-12. Nature of the assay: cells. The format is functional, cell-based, Homo sapiens. As to conditions: Homo sapiens, TE-12.
Description: SANGER: Inhibition of human TE-12 cell growth in a cell viability assay.
The compound `Cc1cc(N2CCOCC2)cc2[nH]c(-c3c(NC[C@@H](O)c4cccc(Cl)c4)cc[nH]c3=O)nc12` gave a pIC50 of 6.75.

In a further assay the test system is HAL-01. In words: cells. The format is functional, cell-based, Homo sapiens. As to conditions: Homo sapiens, HAL-01.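 Note: growth inhibition of human HAL-01 cells, read out with a cell viability assay.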
Description: SANGER: Inhibition of human HAL-01 cell growth in a cell viability assay.
Take `Cc1cc(N2CCOCC2)cc2[nH]c(-c3c(NC[C@@H](O)c4cccc(Cl)c4)cc[nH]c3=O)nc12`: the pIC50 is 5.95.

The next assay relates to MFM-223. In words: cells. The format is functional, cell-based, Homo sapiens. As to conditions: Homo sapiens, MFM-223.
Description: SANGER: Inhibition of human MFM-223 cell growth in a cell viability assay.
`Cc1cc(N2CCOCC2)cc2[nH]c(-c3c(NC[C@@H](O)c4cccc(Cl)c4)cc[nH]c3=O)nc12` showed a pIC50 of under 5.29.

For a further assay, the system named is COLO-829. In words: cells. The assay is classed as functional, cell-based, Homo sapiens. As to conditions: Homo sapiens, COLO-829.
Description: SANGER: Inhibition of human COLO-829 cell growth in a cell viability assay.
`Cc1cc(N2CCOCC2)cc2[nH]c(-c3c(NC[C@@H](O)c4cccc(Cl)c4)cc[nH]c3=O)nc12` had a pIC50 of under 5.29.

The subject of a further assay is COLO-668. In words: cells. The following applies: Homo sapiens, COLO-668. The assay is classed as functional, cell-based, Homo sapiens.
Description: SANGER: Inhibition of human COLO-668 cell growth in a cell viability assay.
`Cc1cc(N2CCOCC2)cc2[nH]c(-c3c(NC[C@@H](O)c4cccc(Cl)c4)cc[nH]c3=O)nc12` had a pIC50 of 5.92.

A further assay has as its system SK-N-DZ. Nature of the assay: cells. The following applies: Homo sapiens, SK-N-DZ; read-out: IC50. The format is functional, cell-based, Homo sapiens.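 Note: growth inhibition of the cancer cell line, read out through a viability assay.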
Description: SANGER: Inhibition of human SK-N-DZ cell growth in a cell viability assay.
For the compound `Cc1cc(N2CCOCC2)cc2[nH]c(-c3c(NC[C@@H](O)c4cccc(Cl)c4)cc[nH]c3=O)nc12`, the pIC50 was 5.68.

The next assay deals with CAS-1. In words: cells. As to conditions: Homo sapiens, CAS-1. The assay is classed as functional, cell-based, Homo sapiens.
Description: SANGER: Inhibition of human CAS-1 cell growth in a cell viability assay.
In turn, `Cc1cc(N2CCOCC2)cc2[nH]c(-c3c(NC[C@@H](O)c4cccc(Cl)c4)cc[nH]c3=O)nc12` gave a negative logarithm of the IC50 (pIC50) of under 5.29.

Another assay deals with CW-2. In words: cells. The assay is classed as functional, cell-based, Homo sapiens. As to conditions: Homo sapiens, CW-2.
Description: SANGER: Inhibition of human CW-2 cell growth in a cell viability assay.
`Cc1cc(N2CCOCC2)cc2[nH]c(-c3c(NC[C@@H](O)c4cccc(Cl)c4)cc[nH]c3=O)nc12` showed a pIC50 of under 5.29.

The next assay has as its system QIMR-WIL. In words: cells. The assay is classed as functional, cell-based, Homo sapiens. The following applies: Homo sapiens, QIMR-WIL.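 Note: growth inhibition of QIMR-WIL cells, read out with a cell viability assay.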
Description: SANGER: Inhibition of human QIMR-WIL cell growth in a cell viability assay.
For `Cc1cc(N2CCOCC2)cc2[nH]c(-c3c(NC[C@@H](O)c4cccc(Cl)c4)cc[nH]c3=O)nc12`, the pIC50 is under 5.29.

The next assay has as its system HCC1187. In words: cells. The assay is classed as functional, cell-based, Homo sapiens. As to conditions: Homo sapiens, HCC1187.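 Note: growth inhibition of HCC1187 cells, read out with a cell viability assay.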
Description: SANGER: Inhibition of human HCC1187 cell growth in a cell viability assay.
In turn, `Cc1cc(N2CCOCC2)cc2[nH]c(-c3c(NC[C@@H](O)c4cccc(Cl)c4)cc[nH]c3=O)nc12` showed a pIC50 of under 5.29.
